Read-outs that look alike come from different tables or passages of the source.
Key:
[1] = Pharmacokinetic study after oral administration of R. acetosa extract to rats; type: in vivo, Sprague‒Dawley rats; details: oral R. acetosa extract 2 g/kg; for MRT / half-life / Tmax / first time detected in plasma of every rat (first sampling time) / time from which plasma concentrations were below the LLOQ / time until which the analyte could be detected in plasma / plasma concentrations (in words): rat; for MRT / half-life / Cmax / AUC(0-t): n = 3, mean ± SD; for Cmax / AUC(0-t): rat plasma; for AUC(0-t): last measured time points for C, E, CG, PG 6, 24, 8, 6 h
Experimental: The analysis was performed on an Agilent 1260 series (Agilent Technologies, Waldbronn, Germany) HPLC system. Chromatographic separation of the samples was carried out on a Kinetex Biphenyl column (100 × 3.0 mm, 2.6 μm, 110 Å, Phenomenex, Torrance, CA, USA). The mobile phase consisted of 2 mM ammonium formate (pH 6) in water (A) and 2 mM ammonium formate (pH 6) in methanol (B). The gradient program was used at a flow rate of 0.3 mL/min while maintaining the column temperature at 40 °C. The mobile phase initial composition of 25% B was maintained for 2 min. It was then increased linearly from 25% to 95% B for 0.5 min and held for 7 min. The gradient was then changed back to the initial condition for 0.5 min and kept at the initial condition for 3 min. The total analysis time was 13 min for each sample. The injection volume was 15 μL.
The mass spectrometric detection was performed on an Agilent 6460 triple-quadruple mass spectrometer (Agilent Technologies, Singapore) with an electrospray ionization source. It was operated in the negative ion detection mode because of its higher sensitivity than that in the positive ionization mode on multiple reaction monitoring (MRM). The data were acquired and processed using Mass Hunter Workstation B.06.00 software (Agilent Technologies, Singapore). The source parameters were also optimized as follows: a drying gas flow and temperature at 6 L/min and 350 °C were used, respectively; the sheath gas flow and temperature were maintained at 12 L/min and 350 °C, respectively; the nebulizing gas (N2) pressure was set at 25 psi; and the capillary and nozzle voltages were set at 3500 V and 500 V, respectively.
To 20 μL aliquot of the rat plasma samples, 60 μL of 5 ng/mL IS in methanol was added. The mixture was vortexed for 30 s and kept at 4 °C for 30 min. The mixture was centrifuged at 10,000× g for 10 min. The supernatant was transferred to an HPLC vial, and 15 μL of the processed sample was injected onto the LC-MS/MS system.
Male Sprague‒Dawley rats (8-week-old, weighing 250 ± 10 g) were obtained from Koatech (Pyeongtaek, Korea). They were housed and acclimated in the Animal Laboratory, Gyeongsang National University, under controlled temperature and humidity and regular 12 h light cycle, freely accessible to food and water for 7 days before the experiment. The rats were cannulated into the carotid artery and allowed to recover for one day. Before the pharmacokinetic study, all rats were fasted for 12 h with free access to water. R. acetosa extract suspended in a solution (ethanol:polysorbate 80:water = 1:2:7, v/v/v) was orally administered to the three rats at a dose of 2 g/kg. The calculated doses of compounds based on the contents in the extract were 18.8, 25.8, 13.6, 15.4, 3.4, and 8.2 mg/kg for E, EG, C, CG, P, and PG, respectively. Blood samples (100 µL) were collected via the cannulated carotid vessel at 0, 15, 30, 45 min, 1, 2, 3, 4, 6, 8, 12, and 24 h after oral administration. To collect plasma, the blood samples were immediately centrifuged at 10,000× g for 5 min. All plasma samples were stored at −80 °C until analysis. All experimental procedures of the animal study were approved (GNU-130618-R0038) by the Animal Care and Use Committee of Gyeongsang National University, Korea.

[2] = Stability of analytes in stock solution; type: physicochemical; details: stock solutions stored at room temperature for 4 h, n = 3
Experimental: The primary stock solutions of E, EG, C, CG, P, PG, and IS were prepared in dimethyl sulfoxide at a concentration of 1 mg/mL and stored at −80 °C. The mixture stock solutions to obtain the standard solutions were serially diluted in methanol. The IS stock solution of 5 ng/mL was prepared in methanol. The calibration standards were prepared by spiking 10 μL of above standard solutions into 90 μL of blank rat plasma to yield concentration ranges of 1–300 ng/mL for E, 20–300 ng/mL for P and C, 1–150 ng/mL for EG, 10–150 ng/mL for CG and PG. Twenty microliters of aliquots were prepared and stored at −80 °C until analysis.
(§1) The stability of the analytes in rat plasma was evaluated by analyzing triplicates of three QC levels at room temperature for 4 h (short-term stability), −80 °C for one month (long-term stability), three freeze-thaw cycles from −80 °C to room temperature (freeze and thaw stability), and 4 °C for 24 h (processed sample stability). The stability of analytes in stock solution was also evaluated. The peak areas obtained from freshly prepared stock solutions were compared with stock solutions stored for 4 h at room temperature.

[3] = Stability of the analytes in rat plasma (method validation); type: in vitro ADME; details: n = 3; for Processed Sample Stability, Accuracy: processed rat plasma sample, 4 °C 24 h; for Short Term Stability, Accuracy / Freeze and Thaw Stability, Accuracy / Long Term Stability, Accuracy: rat plasma; for Short Term Stability, Accuracy: room temperature 4 h; for Freeze and Thaw Stability, Accuracy: three freeze-thaw cycles −80 °C to room temperature; for Long Term Stability, Accuracy: −80 °C one month
Experimental: as §1

[4] = parameters: method as in PMID 19921750; details: after administration of emodin 40 mg/kg; rapidly and extensively metabolized to its glucuronide; cited from earlier work
[5] = parameters: method as in doi:10.1039/C5RA27273D; details: hyperlipidemic hamsters after administration of rhubarb; cited from earlier work
[6] = male, Sprague-Dawley, plasma, read-out: Median Tmax (converted)
[7] = high QC (P, E, C 300; PG, EG, CG 150 ng/mL)
[8] = low QC (P, C 60; E, EG 3; PG, CG 30 ng/mL)
[9] = middle QC (P, E, C 150; PG, EG, CG 75 ng/mL)
[10] = male, Sprague-Dawley, plasma, n = 3, median (range), read-out: Tmax

| Structure (SMILES) | MRT ([1]; male, Sprague-Dawley, plasma) | half-life ([1]; male, Sprague-Dawley, plasma) | Tmax [1, 6] | Cmax ([1]; male, Sprague-Dawley) | AUC(0-t) ([1]; male, Sprague-Dawley) | first time detected in plasma of every rat (first sampling time) [1] | time from which plasma concentrations were below the LLOQ [1] | mean concentration in stock solution compared with fresh stock solutions [2] | Processed Sample Stability, Accuracy [3, 7] | Processed Sample Stability, Accuracy [3, 8] | Processed Sample Stability, Accuracy [3, 9] | Short Term Stability, Accuracy [3, 7] | Short Term Stability, Accuracy [3, 8] | Short Term Stability, Accuracy [3, 9] | Freeze and Thaw Stability, Accuracy [3, 7] | Freeze and Thaw Stability, Accuracy [3, 8] | Freeze and Thaw Stability, Accuracy [3, 9] | Long Term Stability, Accuracy [3, 7] | Long Term Stability, Accuracy [3, 8] | Long Term Stability, Accuracy [3, 9] | further results |
| --- | --- | --- | --- | --- | --- | --- | --- | --- | --- | --- | --- | --- | --- | --- | --- | --- | --- | --- | --- | --- | --- |
| Cc1cc(O)c2c(c1)C(=O)c1cccc(O)c1C2=O [C, chrysophanol] | 2.4 ± 0.2 h | 3.9 ± 0.6 h | 0.25 h | 156 ± 86 ng/mL | 266 ± 70.9 ng·h/mL | 15 min | 6 h | 95.9% | 102.3% | 101.5% | 103.7% | 101.2% | 103.5% | 98.6% | 92.4% | 89.7% | 91.8% | 102.6% | 104.3% | 97.9% | Tmax ([1]; n = 3, median (range)): 0.25 (0.25–0.5) h |
| Cc1cc(O)c2c(c1)C(=O)c1cccc(O[C@@H]3O[C@H](CO)[C@@H](O)[C@H](O)[C@H]3O)c1C2=O [CG, chrysophanol-8-O-β-D-glucoside] | 2.4 ± 0.08 h | 4.8 ± 0.5 h |  | 28.7 ± 4.7 ng/mL | 158 ± 12.3 ng·h/mL | 15 min |  | 101.7% | 96.7% | 91.1% | 100.2% | 101.8% | 97.6% | 96.9% | 97.0% | 98.3% | 101.0% | 101.5% | 97.5% | 100.6% | Tmax [1, 10]: 2 h; time until which the analyte could be detected in plasma [1]: 8 h |
| Cc1cc(O)c2c(c1)C(=O)c1cc(O)cc(O)c1C2=O [E, emodin] | 7.7 ± 3 h |  | 0.25 h | 124 ± 41.7 ng/mL | 1160 ± 336 ng·h/mL | 15 min |  | 94.8% | 104.6% | 108.2% | 108.0% | 101.8% | 103.2% | 100.7% | 102.0% | 107.5% | 104.5% | 107.7% | 106.8% | 107.8% | time until which the analyte could be detected in plasma [1]: 24 h; Tmax ([1]; n = 3, median (range)): 0.25 (0.25–0.75) h; detection of the parent form (in words) [4]: almost undetectable; time until which the analyte could be detected [5]: 36 h |
| Cc1cc(O)c2c(c1)C(=O)c1cc(O)cc(O[C@@H]3O[C@H](CO)[C@@H](O)[C@H](O)[C@H]3O)c1C2=O [EG, emodin-8-O-β-D-glucoside] |  |  |  |  |  |  |  | 100.4% | 100.3% | 91.5% | 107.9% | 98.9% | 99.8% | 108.5% | 100.9% | 100.4% | 112.3% | 102.8% | 102.9% | 107.9% | plasma concentrations (in words) [1]: not high enough to determine the pharmacokinetic parameters; detection in plasma (in words) [5]: not detected |
| COc1cc(O)c2c(c1)C(=O)c1cc(C)cc(O)c1C2=O [P, physcion] |  |  |  |  |  |  |  | 99.2% | 102.7% | 102.2% | 101.6% | 103.8% | 104.9% | 98.9% | 104.2% | 103.6% | 103.9% | 98.0% | 107.3% | 100.1% | plasma concentrations (in words) [1]: not high enough to determine the pharmacokinetic parameters |
| COc1cc(O[C@@H]2O[C@H](CO)[C@@H](O)[C@H](O)[C@H]2O)c2c(c1)C(=O)c1cc(C)cc(O)c1C2=O [PG, physcion-8-O-β-D-glucoside] | 2.7 ± 0.6 h | 6.2 ± 3.9 h |  | 20.5 ± 1.4 ng/mL | 82.8 ± 13.8 ng·h/mL | 15 min | 6 h | 102.4% | 96.8% | 98.8% | 92.7% | 96.7% | 98.9% | 91.8% | 93.6% | 101.5% | 94.3% | 97.1% | 97.7% | 98.5% | Tmax [1, 10]: 0.75 h |

— paper PMC6161010, “A Simple and Sensitive Liquid Chromatography with Tandem Mass Spectrometric Method for the Simultaneous Determination of Anthraquinone Glycosides and Their Aglycones in Rat Plasma: Application to a Pharmacokinetic Study of Rumex acetosa Extract” (Pharmaceutics, 2018)
